In US20250163043A1 (TRANSTHERA SCIENCES (NANJING), INC., priority 2021, published 2025):

Tests used:
CDK9/CycT1 [1] = target: T1, CDK9/CycT1 (Homo sapiens, UniProt P50750); experiment: ADP-Glo kinase assay on CDK enzymatic activity, CDK9/CycT1; type: biochemical; conditions: 10 concentrations from 10 μM, 4-fold, 60 min room temperature
In short: (§1)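 Steps: compound (10 μM top, 4-fold series) plus kinase, 10 min RT; add substrate/ATP mix, 60 min RT; ADP-Glo reagent 40 min; detection reagent 40 min; read luminescence. Inhibition referenced to AZD4573 (1 μM) and DMSO vehicle; IC50 by nonlinear fit.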

CDK2/CycA2 = CDK2/CycA2 (Homo sapiens, UniProt P24941); experiment: ADP-Glo kinase assay on CDK enzymatic activity, CDK2/CycA2; type: biochemical; conditions: 10 concentrations from 10 μM, 4-fold, 60 min room temperature
In short: as §1

CDK3/CycE1 = CDK3/CycE1 (Homo sapiens, UniProt Q00526); experiment: ADP-Glo kinase assay on CDK enzymatic activity, CDK3/CycE1; type: biochemical; conditions: 10 concentrations from 10 μM, 4-fold, 60 min room temperature
Chain of CDK3/CycE1 (Q00526 whole entry, species assumed): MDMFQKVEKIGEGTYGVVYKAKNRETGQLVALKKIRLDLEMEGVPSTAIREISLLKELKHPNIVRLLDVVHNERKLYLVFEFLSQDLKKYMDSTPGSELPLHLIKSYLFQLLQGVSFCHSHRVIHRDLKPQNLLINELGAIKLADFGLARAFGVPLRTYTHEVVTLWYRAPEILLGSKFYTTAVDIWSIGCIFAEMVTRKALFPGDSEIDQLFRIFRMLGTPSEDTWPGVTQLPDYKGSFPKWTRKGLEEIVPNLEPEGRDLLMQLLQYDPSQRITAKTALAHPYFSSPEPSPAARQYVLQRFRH
Chain of CDK3/CycE1 (P24864 whole entry partner, species assumed): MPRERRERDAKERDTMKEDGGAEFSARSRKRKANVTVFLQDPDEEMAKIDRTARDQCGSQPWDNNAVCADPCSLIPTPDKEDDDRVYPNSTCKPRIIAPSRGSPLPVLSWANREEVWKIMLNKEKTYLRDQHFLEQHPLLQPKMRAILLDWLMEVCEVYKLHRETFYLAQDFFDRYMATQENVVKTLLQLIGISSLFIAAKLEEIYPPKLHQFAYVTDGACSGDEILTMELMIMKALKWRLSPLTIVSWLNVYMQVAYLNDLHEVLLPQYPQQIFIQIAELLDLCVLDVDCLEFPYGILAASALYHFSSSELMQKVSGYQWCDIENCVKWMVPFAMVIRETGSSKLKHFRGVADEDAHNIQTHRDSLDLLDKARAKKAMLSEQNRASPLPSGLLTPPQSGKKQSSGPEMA
In short: as §1

CDK5/p25NCK = CDK5/p25NCK (Homo sapiens, UniProt Q00535); experiment: ADP-Glo kinase assay on CDK enzymatic activity, CDK5/p25NCK; type: biochemical; conditions: 10 concentrations from 10 μM, 4-fold, 60 min room temperature
Chain of CDK5/p25NCK (Q00535 whole entry, species assumed): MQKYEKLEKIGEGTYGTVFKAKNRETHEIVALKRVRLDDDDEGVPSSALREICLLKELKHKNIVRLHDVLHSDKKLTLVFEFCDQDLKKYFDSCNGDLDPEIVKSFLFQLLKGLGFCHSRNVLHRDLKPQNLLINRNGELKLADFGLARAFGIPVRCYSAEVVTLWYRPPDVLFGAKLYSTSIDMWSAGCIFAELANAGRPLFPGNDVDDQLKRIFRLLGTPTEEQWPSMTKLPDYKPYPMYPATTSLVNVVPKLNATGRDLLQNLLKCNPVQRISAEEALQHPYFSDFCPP
Chain of CDK5/p25NCK (Q15078 99-307 partner limits assumed, species assumed): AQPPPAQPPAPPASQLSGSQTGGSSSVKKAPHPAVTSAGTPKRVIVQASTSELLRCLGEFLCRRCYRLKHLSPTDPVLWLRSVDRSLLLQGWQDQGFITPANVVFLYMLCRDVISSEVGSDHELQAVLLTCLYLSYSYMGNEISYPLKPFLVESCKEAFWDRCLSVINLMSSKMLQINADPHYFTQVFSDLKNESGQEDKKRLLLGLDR
In short: as §1

[2] = tested on: NCI-H929 (human myeloma cells); experiment: CCK-8 cell proliferation assay, NCI-H929; type: cell-based; conditions: 72 h incubation, 11 concentrations from 5000 nM, 3-fold
Procedure: Test samples: the compounds of the present invention, having structures shown above.
RMPI 1640, Fetal Bovine Serum (FBS), a CCK-8 method cell proliferation assay kit, DMSO (dimethyl sulfoxide), a 96-well cell culture plate, an Iscov'Modified Dulbecco's culture medium (IMDM), a multifunctional microplate reader,
MV-4-11 (human myelomonocytic leukemia cells) and NCI-H929 (human myeloma cells).
The compounds were dissolved in DMSO and diluted 3-fold in the 96-well plate to obtain stock solutions with 11 concentration gradients. Each cell was inoculated into a 96-well plate, and the diluted compound stock solution was added to the 96-well plate to obtain a series of 11 concentration gradients of compound solutions with final concentrations of 5000 nM starting and 3-fold gradient decreasing, wherein the final DMSO content was […]. There was a medium containing 1‰ DMSO in the negative control well. The treated cells were incubated at 37° C. with 5% CO2 and 95% humidity, wherein MV-4-11 were incubated for 24 h and NCI-H929 for 72 h. After incubation was completed, each well was added with 10 μL of CCK-8 reagent, incubated for 1-3 h at room temperature and placed in the microplate reader, and the absorbance was read at 450 nm.
The inhibition rate was calculated according to the following formula: […]
ODcmpd: compound absorbance; ODpositive: average value of the absorbance of positive control without compound; ODvehicle: average value of the absorbance of solvent vehicle control.
IC50 values were fitted using GraphPad 7.0 based on inhibition rates of compounds at different concentrations.

CDK9/CycT1 [3] = target: T1, CDK9/CycT1; experiment: Off-chip mobility shift assay (MSA) on CDK9/CycT1; type: biochemical; design: Full-length human CDK9 [1-372(end) amino acids of; host or cells: baculovirus expression system; conditions: 4-point concentration (0.0016, 0.008, 0.04, 0.2 uM), ATP 10 μM, reaction time 5 hours, read-out: CDK9/CycT1/nM (inhibitory activity)
Procedure: Prepare 100× concentrated Test compound stock solutions with DMSO. Then, Dilute the solution 25 times with Assay Buffer (20 mM HEPES, 0.01% Triton X-100, 2 mM DTT, pH7.5) to prepare 4× test compound solutions.
Test compounds were evaluated at 4-point concentration (0.0016, 0.008, 0.04, 0.2 uM). • 1) Mix 5 μL of 4× test compound solution with 5 μL of 4× substrate/ATP/Metal solution and 10 μL of 2× kinase solution in 384-well polypropylene plate. Incubate for 5 hours at room temperature. • 2) Add 70 μL of Termination Buffer (QuickScout Screening Assist MSA; Carna Biosciences) to stop the reaction. • 3) Separate and detect unphosphorylated/phosphorylated substrate peptides in the reactant using LabChip system (Perkin Elmer). • 4) Evaluate kinase reaction from product ratio (P/(P+S)) calculated by peak height of unphosphorylated substrate(S) and peak height of phosphorylated substrate (P).

T1 sequence (P50750 whole entry): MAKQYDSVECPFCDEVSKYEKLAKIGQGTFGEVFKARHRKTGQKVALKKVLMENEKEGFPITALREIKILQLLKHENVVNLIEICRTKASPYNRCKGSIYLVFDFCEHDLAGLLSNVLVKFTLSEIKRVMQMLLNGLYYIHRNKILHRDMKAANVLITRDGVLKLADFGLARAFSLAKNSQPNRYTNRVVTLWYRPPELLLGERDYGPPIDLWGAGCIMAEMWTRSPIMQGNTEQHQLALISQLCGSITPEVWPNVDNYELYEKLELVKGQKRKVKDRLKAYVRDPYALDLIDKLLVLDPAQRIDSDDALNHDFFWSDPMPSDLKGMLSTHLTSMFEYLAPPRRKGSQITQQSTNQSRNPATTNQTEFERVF
T1 sequence (O60563 whole entry partner): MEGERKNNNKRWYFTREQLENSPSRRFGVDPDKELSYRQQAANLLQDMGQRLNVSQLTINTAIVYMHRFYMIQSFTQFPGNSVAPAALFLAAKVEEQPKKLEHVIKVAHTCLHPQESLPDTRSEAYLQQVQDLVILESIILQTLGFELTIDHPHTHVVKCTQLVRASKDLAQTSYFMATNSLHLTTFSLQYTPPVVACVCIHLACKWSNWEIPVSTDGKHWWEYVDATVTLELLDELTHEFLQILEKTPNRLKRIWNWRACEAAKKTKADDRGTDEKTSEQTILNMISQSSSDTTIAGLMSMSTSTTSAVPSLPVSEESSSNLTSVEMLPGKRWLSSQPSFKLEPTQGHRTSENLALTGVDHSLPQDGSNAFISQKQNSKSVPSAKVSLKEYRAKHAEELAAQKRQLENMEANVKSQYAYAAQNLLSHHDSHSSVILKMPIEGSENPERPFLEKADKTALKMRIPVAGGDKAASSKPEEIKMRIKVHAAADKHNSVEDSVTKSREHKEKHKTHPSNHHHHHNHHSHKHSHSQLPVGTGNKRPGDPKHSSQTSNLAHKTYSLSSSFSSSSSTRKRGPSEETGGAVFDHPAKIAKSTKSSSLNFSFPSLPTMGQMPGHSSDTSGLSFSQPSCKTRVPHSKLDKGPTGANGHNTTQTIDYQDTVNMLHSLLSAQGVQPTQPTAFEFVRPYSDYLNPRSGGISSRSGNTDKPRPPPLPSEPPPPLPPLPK

SMILES | IC50 (CDK9/CycT1 [3]) | also measured
CC(C)Nc1nc(C#N)cc2cnc(N[C@@H]3CC[C@@H](N)C3)cc12 [Compound 30, 7-(((1R,3R)-3-aminocyclopentyl)amino)-1-(isopropylamino)-2,6-naphthyridine-3-carbonitrile] |  | IC50 (CDK9/CycT1 [1]): 2 nM; IC50 (CDK2/CycA2): 15 nM; IC50 (CDK3/CycE1): 95 nM; IC50 (CDK5/p25NCK): 31 nM; IC50 [2]: 14 nM
CC(C)Nc1nc(C#N)cc2cnc(N[C@H]3CC[C@H](O)C3)cc12 [Compound 33, 7-(((1S,3S)-3-hydroxycyclopentyl)amino)-1-(isopropylamino)-2,6-naphthyridine-3-carbonitrile] |  | IC50 (CDK9/CycT1 [1]): 1 nM; IC50 (CDK2/CycA2): 3 nM; IC50 (CDK3/CycE1): 9 nM; IC50 (CDK5/p25NCK): 3 nM; IC50 [2]: 8 nM
CC(=O)N[C@H]1CC[C@H](CNc2ncc3cc([C@@H](C)O)nc(NC(C)C)c3n2)CC1 [Compound 72, N-((1R,4r)-4-(((6-((R)-1-hydroxyethyl)-8-(isopropylamino)pyrido[3,4-d]pyrimidin-2-yl)amino)methyl)cyclohexyl)acetamide] | 97 nM | 
CC(C)Nc1nc([C@@H](C)O)cc2cnc(NC[C@H]3CC[C@H](NS(C)(=O)=O)CC3)nc12 [Compound 73, N-((1R,4r)-4-(((6-((R)-1-hydroxyethyl)-8-(isopropylamino)pyrido[3,4-d]pyrimidin-2-yl)amino)methyl)cyclohexyl)methanesulfonamide] | 61 nM | 
CC(C)Nc1nc([C@@H](C)O)cc2cnc(N[C@H]3CC[C@H](NC4CCOCC4)CC3)nc12 [Compound 74, (R)-1-(8-(isopropylamino)-2-(((1r,4R)-4-((tetrahydro-2H-pyran-4-yl)amino)cyclohexyl)amino)pyrido[3,4-d]pyrimidin-6-yl)ethan-1-ol] | 19 nM | 
CC(C)Nc1nc([C@@H](C)O)cc2cnc(N[C@H]3CC[C@H](O)CC3)nc12 [Compound 75, (1R,4r)-4-((6-((R)-1-hydroxyethyl)-8-(isopropylamino)pyrido[3,4-d]pyrimidin-2-yl)amino)cyclohexan-1-ol] | 36 nM | 
CC(C)Nc1nc([C@@H](C)O)cc2cnc(N[C@H]3CC[C@H](N)CC3)nc12 [Compound 76, (R)-1-(2-(((1r,4R)-4-aminocyclohexyl)amino)-8-(isopropylamino)pyrido[3,4-d]pyrimidin-6-yl)ethan-1-ol] | 10 nM | 
CNC(=O)[C@H]1CC[C@@H](Nc2ncc3cc([C@@H](C)O)nc(NC(C)C)c3n2)C1 [Compound 79, (1S,3R)-3-((6-((R)-1-hydroxyethyl)-8-(isopropylamino)pyrido[3,4-d]pyrimidin-2-yl)amino)-N-methylcyclopentane-1-carboxamide] | 23 nM | 
CC(C)Nc1nc([C@@H](C)O)cc2cnc(N[C@H]3CC[C@H](NC4COC4)CC3)nc12 [Compound 80, (R)-1-(8-(isopropylamino)-2-(((1r,4R)-4-(oxetan-3-ylamino)cyclohexyl)amino)pyrido[3,4-d]pyrimidin-6-yl)ethan-1-ol] | 12 nM | 
CC(C)Nc1nc([C@@H](C)O)cc2cnc(NC[C@H]3CC[C@H](N)CC3)nc12 [Compound 82, (R)-1-(2-((((1r,4R)-4-aminocyclohexyl)methyl)amino)-8-(isopropylamino)pyrido[3,4-d]pyrimidin-6-yl)ethan-1-ol] | 63 nM | 
CC(C)Nc1nc([C@@H](C)O)cc2cnc(NCC3CCNCC3)nc12 [Compound 84, (R)-1-(8-(isopropylamino)-2-((piperidin-4-ylmethyl)amino)pyrido[3,4-d]pyrimidin-6-yl)ethan-1-ol] | 47 nM | 
CC(C)Nc1nc([C@@H](C)O)cc2cnc(NCCCO)nc12 [Compound 85, (R)-3-((6-(1-hydroxyethyl)-8-(isopropylamino)pyrido[3,4-d]pyrimidin-2-yl)amino)propan-1-ol] | 64 nM | 
CC(C)Nc1nc([C@@H](C)O)cc2cnc(NC(=O)[C@@H]3CCCNC3)cc12 [Compound 86, (R)—N-(7-((R)-1-hydroxyethyl)-5-(isopropylamino)-2,6-naphthyridin-3-yl)piperidine-3-carboxamide] | 50 nM | 
CC(=O)c1cc2cnc(N[C@H]3CC[C@H](O)CC3)nc2c(NC(C)C)n1 [Compound 88, 1-(2-(((1r,4r)-4-hydroxycyclohexyl)amino)-8-(isopropylamino)pyrido[3,4-d]pyrimidin-6-yl)ethan-1-one] | 44 nM | 

Continued, in another order:

IC50 (CDK9/CycT1 [3]) | SMILES | also measured
24 nM | CC(C)Nc1nccc2cnc(N[C@H]3CC[C@H](O)CC3)nc12 [Compound 89, (1r,4r)-4-((8-(isopropylamino)pyrido[3,4-d]pyrimidin-2-yl)amino)cyclohexan-1-ol] | 
6 nM | CC(C)Nc1nc(C(F)F)cc2cnc(N[C@H]3CC[C@H](O)CC3)nc12 [Compound 91, (1r,4r)-4-((6-(difluoromethyl)-8-(isopropylamino)pyrido[3,4-d]pyrimidin-2-yl)amino)cyclohexan-1-ol] | 
64 nM | Cc1cc2cnc(N[C@H]3CC[C@H](O)CC3)nc2c(NC(C)C)n1 [Compound 92, (1r,4r)-4-((8-(isopropylamino)-6-methylpyrido[3,4-d]pyrimidin-2-yl)amino)cyclohexan-1-ol] | 
7 nM | C#Cc1cc2cnc(N[C@H]3CC[C@H](O)CC3)nc2c(NC(C)C)n1 [Compound 93, (1r,4r)-4-((6-ethynyl-8-(isopropylamino)pyrido[3,4-d]pyrimidin-2-yl)amino)cyclohexan-1-ol] | 
4 nM | CC(C)Nc1nc(C#N)cc2cnc(N[C@H]3CC[C@H](O)CC3)nc12 [Compound 94, 2-(((1r,4r)-4-hydroxycyclohexyl)amino)-8-(isopropylamino)pyrido[3,4-d]pyrimidine-6-carbonitrile] | 
34 nM | CC(C)Nc1nc(C2COC2)cc2cnc(N[C@H]3CC[C@H](O)CC3)nc12 [Compound 95, (1r,4r)-4-((8-(isopropylamino)-6-(oxetan-3-yl)pyrido[3,4-d]pyrimidin-2-yl)amino)cyclohexan-1-ol] | 
17 nM | CC(C)Nc1nc(CO)cc2cnc(N[C@H]3CC[C@H](O)CC3)nc12 [Compound 97, (1r,4r)-4-((6-(hydroxymethyl)-8-(isopropylamino)pyrido[3,4-d]pyrimidin-2-yl)amino)cyclohexan-1-ol] | 
28 nM | CC(=O)N[C@@H]1CCC[C@H](C(=O)Nc2cc3c(NC(C)C)nc([C@@H](C)O)cc3cn2)C1 [Compound 98, (1S,3R)-3-acetamido-N-(7-((R)-1-hydroxyethyl)-5-(isopropylamino)-2,6-naphthyridin-3-yl)cyclohexane-1-carboxamide] | 
29 nM | C=Cc1cc2cnc(NC(=O)[C@H]3CCC[C@@H](NC(C)=O)C3)cc2c(NC(C)C)n1 [Compound 99, (1S,3R)-3-acetamido-N-(5-(isopropylamino)-7-vinyl-2,6-naphthyridin-3-yl)cyclohexane-1-carboxamide] | 
15 nM | CC(C)Nc1nc([C@@H](C)O)cc2cnc(N[C@H]3CC[C@H](NC4COC4)CC3)cc12 [Compound 101, (R)-1-(1-(isopropylamino)-7-(((1r,4R)-4-(oxetan-3-ylamino)cyclohexyl)amino)-2,6-naphthyridin-3-yl)ethan-1-ol] | 
10 nM | C[C@@H](O)c1nc(NC(C)(C)C)c2nc(N[C@H]3CC[C@H](O)CC3)ncc2c1Cl [Compound 102, (1R,4r)-4-((8-(tert-butylamino)-5-chloro-6-((R)-1-hydroxyethyl)pyrido[3,4-d]pyrimidin-2-yl)amino)cyclohexan-1-ol] | 
